Some test systems named below: A549; COLO 205; DU-145; HCT-15; HL-60; HOP-62; HT-29; Hs-578T; IGROV-1; M14; MDA-MB-231; NCI-H23; SK-MEL-2; SK-OV-3; SN12C; SNB-19; SNB-75; SW-620; T47D; RXF 393.
Holding throughout (test): growth of human tumour cells (NCI), 48 h

The source of these data is ChEMBL document CHEMBL1201862, “PubChem BioAssay data set” (2004).

Molecules are shown by their SMILES.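 Step 1: Grow cells in 96-well plates. Step 2: Expose to compound for 48 hours at 5 concentrations. Step 3: Interpolate endpoints linearly; if unreached, use highest concentration. At the GI50, growth is halved.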 Activity calls are given as the source filed them. No stated cut-off is given here; in the data, active = GI50 up to about 1.1 µM and inactive = higher. Where a SMILES comes first, the peptide text is derived from it. The star is where a group is joined. Boc = CC(C)(C)OC(=O)*

On to `O=C(CCN1CCCCC1)Nc1ccc2sc3ccccc3c(=O)c2n1`, for which the GI50 was 15 µM (inactive) in the experiment on A549; 8.32 µM (inactive) in the experiment with COLO 205; 18.4 µM (inactive) with DU-145; 15.1 µM with HCT-15; 3.89 µM (inactive) in the experiment with HL-60; 13.1 µM (inactive) in the experiment with HOP-62. For the same molecule, the GI50 was 31.6 µM (inactive) in the experiment with HT-29; 19.9 µM (inactive) in the experiment with Hs-578T; 13.4 µM (inactive) in the experiment with IGROV-1; 13.6 µM (inactive) with M14; 14.7 µM (inactive) in the experiment with MDA-MB-231; > 10 µM (inactive) in the experiment on NCI-H23. The GI50 in the experiment on SK-MEL-2 was > 10 µM (inactive); in the experiment with SK-OV-3, 23.2 µM (inactive); in the experiment on SN12C, 12.3 µM (inactive); in the experiment on SNB-19, 15.4 µM (inactive); in the experiment with SNB-75, 10.5 µM (inactive); in the experiment with SW-620 it was 8.3 µM (inactive). Further, the GI50 in the experiment with T47D was 28.4 µM (inactive).

Consider `CC1CCCC(CC(=O)O)(CC(=O)O)C1` (centres undefined), for which the GI50 in the experiment with A549 was > 100 µM (inactive); in the experiment with COLO 205, > 100 µM (inactive); in the experiment with HCT-15, > 100 µM; with HL-60, > 100 µM (inactive); in the experiment on HT-29 it was > 100 µM (inactive); in the experiment with Hs-578T, > 100 µM (inactive). In addition, the GI50 in the experiment on IGROV-1, in the experiment on M14, in the experiment with MDA-MB-231, in the experiment with NCI-H23, in the experiment with SK-MEL-2 and in the experiment with SN12C was > 100 µM (inactive) in each case. Also, the GI50 in the experiment with SNB-19 and with SW-620 was > 100 µM (inactive) throughout.

Consider `CCOC(=O)c1[nH]cc(C)c1-c1ccn(-c2ccccc2)c1`, for which the GI50 in the experiment with A549 was 59.6 µM (inactive); in the experiment on COLO 205, 51.9 µM (inactive); in the experiment with DU-145, > 100 µM (inactive); with HCT-15 it was 54.5 µM; in the experiment with HOP-62, > 100 µM (inactive); with HT-29, 29.6 µM (inactive). Further, the GI50 was 25.9 µM (inactive) in the experiment on Hs-578T; 14.9 µM (inactive) in the experiment on IGROV-1; 48.2 µM (inactive) with M14; 49.5 µM (inactive) in the experiment with NCI-H23; 36.8 µM (inactive) in the experiment on RXF 393; 61.5 µM (inactive) with SK-MEL-2. In addition, the GI50 was > 100 µM (inactive) with SK-OV-3; 89.7 µM (inactive) in the experiment with SN12C; 13.3 µM (inactive) in the experiment on SNB-75; 80.4 µM (inactive) in the experiment on SW-620; 35 µM (inactive) in the experiment on T47D.

As for `COC(=O)c1cn(CCCC(=O)O)nn1`, the GI50 is > 100 µM (inactive) with A549; > 100 µM (inactive) in the experiment with COLO 205; > 100 µM (inactive) in the experiment on DU-145; > 100 µM in the experiment on HCT-15; > 100 µM (inactive) with HOP-62; > 100 µM (inactive) in the experiment on HT-29. Moreover, the GI50 with Hs-578T, in the experiment with IGROV-1, in the experiment on MDA-MB-231, with NCI-H23, in the experiment on RXF 393 and in the experiment with SK-MEL-2 was > 100 µM (inactive) throughout. Also, the GI50 with SN12C, with SNB-19, in the experiment on SNB-75, in the experiment on SW-620 and in the experiment with T47D was > 100 µM (inactive) each time.

Turning to `COc1ccc(-c2cc(-c3ccncc3)nc(N)c2-c2ccc(F)cc2)cc1`, the GI50 with A549 is > 100 µM (inactive); in the experiment with COLO 205, 5.43 µM (inactive); in the experiment on HCT-15, 8.91 µM; in the experiment with HOP-62 it was 45.4 µM (inactive); in the experiment on HT-29, 11.7 µM (inactive); in the experiment on Hs-578T it was > 100 µM (inactive). Moreover, the GI50 in the experiment with IGROV-1 was 10.6 µM (inactive); in the experiment with M14, 42 µM (inactive); in the experiment on MDA-MB-231, > 100 µM (inactive); with NCI-H23, 76 µM (inactive); in the experiment on RXF 393, 15 µM (inactive); with SK-MEL-2, 36 µM (inactive). Further, the GI50 in the experiment on SK-OV-3 is 95.9 µM (inactive); in the experiment on SNB-19, 41.5 µM (inactive); with SNB-75 it was 11.5 µM (inactive); with SW-620, 9.18 µM (inactive); in the experiment on T47D, 80.9 µM (inactive).

With `CCOC(=O)C(CC(C)C)NC(=O)C(Cc1ccccc1)NC(=O)CNC(=O)OC(C)(C)C` (stereo not drawn) (Boc-Gly-Phe-Leu-OEt; configuration not given here), the GI50 is 18.7 µM (inactive) in the experiment with A549; 21.3 µM (inactive) in the experiment on DU-145; 18.4 µM in the experiment on HCT-15; 2.42 µM (inactive) with HL-60; 28.2 µM (inactive) in the experiment on HOP-62; 18.1 µM (inactive) in the experiment on HT-29. In addition, the GI50 in the experiment with Hs-578T is 31.8 µM (inactive); in the experiment with IGROV-1, 21.6 µM (inactive); in the experiment with M14, 20 µM (inactive); in the experiment with RXF 393, 25.8 µM (inactive); with SK-MEL-2, 28.9 µM (inactive); with SK-OV-3, 20.8 µM (inactive). For the same molecule, the GI50 in the experiment with SN12C is 19.2 µM (inactive); with SNB-19, 31.6 µM (inactive); with SNB-75, 16.3 µM (inactive); with SW-620 it was 20.6 µM (inactive); with T47D it was 26.5 µM (inactive).

On to `CCC(C)C(=O)OC1C(=O)OC2CC3C(C)=CC(=O)C(O)C3(C)C3C4(O)OCC23C1C(C)C4O` (centres undefined), for which the GI50 in the experiment on A549 is 0.155 µM (active); with COLO 205, 0.205 µM (active); in the experiment on DU-145, < 0.019 µM (active); with HCT-15, < 0.0185 µM; in the experiment with HOP-62, < 0.019 µM (active); in the experiment with Hs-578T, < 0.0202 µM (active). Besides, the GI50 in the experiment on IGROV-1 was < 0.01 µM (active); in the experiment on M14, < 0.0146 µM (active); in the experiment with MDA-MB-231, 0.032 µM (active); in the experiment with NCI-H23, < 0.0144 µM (active); in the experiment with SK-MEL-2, < 0.0292 µM (active); in the experiment with SK-OV-3, 0.392 µM (active). Besides, the GI50 was 0.0632 µM (active) in the experiment with SN12C; < 0.0152 µM (active) with SNB-19; < 0.0204 µM (active) with SNB-75; 0.0136 µM (active) in the experiment on SW-620; < 0.0166 µM (active) in the experiment on T47D.

As for `CCCCCCCCCCCCCCCCOc1ccc(/C=C/C2=[N+](CCCl)CCO2)cc1`, the GI50 is > 100 µM (inactive) in the experiment on A549; 67.6 µM (inactive) in the experiment on COLO 205; > 100 µM (inactive) in the experiment on DU-145; > 100 µM in the experiment on HCT-15; 12 µM (inactive) in the experiment with HL-60; 87.3 µM (inactive) in the experiment with HOP-62. Also, the GI50 in the experiment on HT-29 is > 100 µM (inactive); in the experiment with Hs-578T, > 100 µM (inactive); in the experiment on IGROV-1, 61.2 µM (inactive); in the experiment on M14, > 100 µM (inactive); in the experiment on MDA-MB-231, 20.1 µM (inactive); with SK-MEL-2, > 100 µM (inactive). Further, the GI50 in the experiment on SK-OV-3, in the experiment with SN12C, in the experiment on SNB-19, with SNB-75, in the experiment with SW-620 and with T47D was > 100 µM (inactive) each time.

For `CCOC(=O)Cc1ccc(Nc2nc3cc(C(F)(F)F)ccc3nc2C(=O)OCC)cc1`, the GI50 is > 100 µM (inactive) in the experiment with A549; > 100 µM (inactive) with COLO 205; > 100 µM (inactive) in the experiment on DU-145; > 100 µM in the experiment with HCT-15; > 100 µM (inactive) in the experiment on HL-60; 35 µM (inactive) in the experiment on HOP-62. Further, the GI50 in the experiment on HT-29 was > 100 µM (inactive); with Hs-578T, 30 µM (inactive); in the experiment with IGROV-1, > 100 µM (inactive); in the experiment with M14, > 100 µM (inactive); with NCI-H23, 34.6 µM (inactive); in the experiment on RXF 393, 20.5 µM (inactive). The GI50 in the experiment on SK-MEL-2 is 61.1 µM (inactive); in the experiment on SK-OV-3, 51.4 µM (inactive); in the experiment on SN12C it was > 100 µM (inactive); in the experiment on SNB-19, 27.5 µM (inactive); in the experiment on SNB-75 it was 20.7 µM (inactive); in the experiment on SW-620, > 100 µM (inactive). Further, the GI50 in the experiment with T47D is > 100 µM (inactive).

Turning to `CO[C@]12CC(=O)C3(C(C[C@H]4CC5CC=C6C[C@@H](OC(C)=O)CC[C@]6(OC(C)=O)C5C[C@@]43C)C1)C1C[C@H]3[C@@H]4CC=C5C[C@@H](OC(C)=O)CC[C@]5(OC(C)=O)[C@H]4CC[C@]3(C)C12` (some centres undefined), the GI50 in the experiment on A549 was 21.9 µM (inactive); in the experiment on COLO 205 it was 3.1 µM (inactive); in the experiment with DU-145 it was 16.5 µM (inactive); in the experiment with HCT-15 it was 21.6 µM; with HL-60 it was 14.9 µM (inactive); with HOP-62, 18.8 µM (inactive). Besides, the GI50 is 16.1 µM (inactive) in the experiment on HT-29; 32.2 µM (inactive) in the experiment with Hs-578T; 20.1 µM (inactive) in the experiment with IGROV-1; 17.5 µM (inactive) in the experiment on M14; 14.8 µM (inactive) with MDA-MB-231; 15.6 µM (inactive) with NCI-H23. Further, the GI50 in the experiment on SK-MEL-2 is 18.1 µM (inactive); in the experiment with SK-OV-3, 62.1 µM (inactive); in the experiment with SN12C, 14.6 µM (inactive); in the experiment with SNB-19, 13.9 µM (inactive); with SNB-75, 36.7 µM (inactive); in the experiment with SW-620 it was 41 µM (inactive). Besides, the GI50 in the experiment with T47D is 10.9 µM (inactive).

In the case of `CCN(CC)c1ccc2cc(C(=O)Nc3ccccc3OC)c(=N)oc2c1`, the GI50 in the experiment with A549 was 21.8 µM (inactive); in the experiment on COLO 205, 24.8 µM (inactive); in the experiment on DU-145 it was 28.2 µM (inactive); in the experiment on HCT-15 it was 19.7 µM; with HL-60, 7.5 µM (inactive); in the experiment with HOP-62 it was 12 µM (inactive). The GI50 with HT-29 was 12.9 µM (inactive); with Hs-578T, 22.1 µM (inactive); with IGROV-1, 7.55 µM (inactive); with M14, 35.2 µM (inactive); in the experiment on NCI-H23 it was 20.4 µM (inactive); in the experiment with SK-MEL-2, 59.7 µM (inactive). For the same molecule, the GI50 in the experiment on SK-OV-3 was 72.3 µM (inactive); in the experiment with SNB-19, 16.1 µM (inactive); with SW-620, 8.67 µM (inactive).
